Experimental data reported in paper PMC10222270, “Natural Product-Based Screening for Lead Compounds Targeting SARS CoV-2 M^pro” (Pharmaceuticals, 2023).
Where “and” joins values, the source holds several entries; their conditions need not be identical. Identical values can stand only once.

Molecular target: T1, SARS CoV-2 M^pro (Severe acute respiratory syndrome coronavirus 2, UniProt P0DTD1)
T1 construct: The main protease (M^pro) is a part of the polyprotein chain, also named 3C-like protease; SUMO (cleaved yes); His; made in house; host or cells: Escherichia coli BL21(DE3)
Assay: biochemical
Assay type: biochemical
Conditions: for inhibition at 80 µM: read-out: Inhibition%(80μM); for result of retest over a concentration range: gradient concentrations

Row | Compound | Inhibition%(80μM) | inhibition at 80 µM | result of retest over a concentration range
1 | C=C1C(=O)[C@]23[C@H](O)[C@H]1CC[C@H]2[C@@]12CO[C@]3(O)[C@@H](O)[C@@H]1C(C)(C)CC[C@@H]2O [Oridonin] | 83.80% and 85.60% | 84.3% | 
2 | CC(=O)/C=C/c1ccc(O)c(O)c1 [Osmundacetone] | 98.31% and 98.46% | 98.7% | 
3 | CCCCCC/C=C\CCCCCCCC(=O)O [Palmitoleic Acid] | 103.78% and 102.80% | 103% | 
4 | CCCCCCCCCCCCCCC(=O)O [Pentadecanoic Acid] | 92.58% and 91.46% | 92.3% | 
5 | CCCCCCCCCCC/C=C\CCCCC(=O)O [Petroselinic Acid] | 105.29% and 103.73% | 104% | 
6 | O=P(O)(O)O[C@H]1[C@H](OP(=O)(O)O)[C@@H](OP(=O)(O)O)[C@H](OP(=O)(O)O)[C@@H](OP(=O)(O)O)[C@H]1OP(=O)(O)O [Phytic Acid] | 97.45% and 98.02% | 97.6% | 
7 | O=C(/C=C/c1ccc(O)c(O)c1)OC[C@H]1O[C@@H](OCCc2ccc(O)c(O)c2)[C@H](O)[C@@H](O[C@@H]2O[C@H](CO)[C@@H](O)[C@H](O)[C@H]2O)[C@@H]1O [Plantainoside D] | 99.79% and 99.90% | 101% | 
8 | CC1=CC(=O)c2c(O)cccc2C1=O [Plumbagin] | 74.76% and 75.47% | 70.2% | 
9 | CCCOC(=O)c1cc(O)c(O)c(O)c1 [Propyl Gallate] | 78.61% and 79.43% | 78.5% | 
10 | O=C(/C=C/c1ccc(O)c(O)c1)O[C@H](Cc1ccc(O)c(O)c1)C(=O)O [Rosmarinic Acid] | 46.31% and 76.08% and 69.63% |  | 
11 | C[n+]1cc2c3c(ccc2c2ccc4cc5c(cc4c21)OCO5)OCO3 [Sanguinarine chloride] | 108.15% | 108% | 
12 | O=c1cc(-c2ccc(O)cc2)oc2cc(O)c(O)c(O)c12 [Scutellarein] | 85.01% and 83.89% | 84.1% | 
13 | O=C(OC[C@H]1O[C@@H](OC(=O)c2cc(O)c(O)c(OC(=O)c3cc(O)c(O)c(O)c3)c2)[C@H](OC(=O)c2cc(O)c(O)c(OC(=O)c3cc(O)c(O)c(O)c3)c2)[C@@H](OC(=O)c2cc(O)c(O)c(OC(=O)c3cc(O)c(O)c(O)c3)c2)[C@@H]1OC(=O)c1cc(O)c(O)c(OC(=O)c2cc(O)c(O)c(O)c2)c1)c1cc(O)c(O)c(OC(=O)c2cc(O)c(O)c(O)c2)c1 [Tannic Acid] | 88.66% and 87.66% | 89.6% | 
14 | C[C@@H]1CC[C@]2(C(=O)O)CC[C@]3(C)C(=CC[C@@H]4[C@@]5(C)CC[C@H](O[C@@H]6OC[C@H](O)[C@H](O)[C@H]6O)C(C)(C)[C@@H]5CC[C@]43C)[C@@H]2[C@]1(C)O [Ziyuglycoside II] | 70.21% and 74.61% and 47.27% |  | 
15 | CC(C)=CCC/C(C)=C/Cc1cc(-c2coc3cc(O)ccc3c2=O)ccc1O [corylifol A, Corylifol A] | 100.01% and 99.99% | 100% | unable to generate a whole curve within the concentration range
16 | Oc1cc2c(cc1O)[C@@H]1c3ccc(O)c(O)c3OC[C@]1(O)C2 [hematoxylin, Hematoxylin] | 103.56% and 103.03% | 104% | 
17 | C[n+]1cc2c3c(ccc2c2ccc4cc5c(cc4c21)OCO5)OCO3 [sanguinarine, Sanguinarine] | 107.86% and 107.40% and 108.34% |  | no inhibitory effect on M^pro when retested
18 | CC(C)=CCC(OC(=O)C=C(C)C)C1=CC(=O)c2c(O)ccc(O)c2C1=O (stereo not drawn) [β,β-dimethylacrylshikonin] | 75.31% and 77.34% and 77.10% |  | 
19 | (-)-Epigallocatechin | 78.95% and 75.28% and 77.55% |  | 
20 | Echinacoside | 93.62% and 90.06% and 89.84% |  | 
21 | Forsythoside B | 92.91% and 95.11% and 93.46% |  | 
22 | Harmol | 74.50% and 81.33% and 79.31% |  | 
23 | Maleimide | 103.98% and 104.37% and 103.27% |  | 
